Test results as given in US20130096170A1 (priority 2011, published 2013).
Where two headings read alike, the source gives them in different places.

Legend:
[1] = cited from earlier work
[2] = human, in vivo
clinical [3] = conditions: human, in vivo
clinical [4] = conditions: human, in vivo; remark: listed apart in the source
[5] = human, in vivo; remark: listed apart in the source
clinical [6] = conditions: human
[7] = Su et al. model, subject 7.7 months, 7 kg, total bypass time 57 minutes
[8] = noncompartmental analysis of the adult long-term use data
[9] = population PK of 4 pooled pediatric intensive care studies (1 week to 14 years)
[10] = typical subject, adult population PK analysis of long-term (>24 h) use

Q: Which results are given for `Cc1cccc([C@H](C)c2cnc[nH]2)c1C` [dexmedetomidine]?
A: CL [1, 7]: 7.26 L/h; Q [1, 7]: 24.1 L/h; Vc [1, 7]: 8.4 L; Vp [1, 7]: 10.2 L; CL [1, 8]: 39.4 L/h; volume of distribution [1, 8]: 152 L; CL standardized to a 70-kg adult [1, 9]: 42.1 L/h; volume of distribution standardized to a 70-kg adult [1, 9]: 125.3 L; volume of distribution ([1]; product label for Precedex): 118 L; CL ([1]; product label for Precedex, mean body weight 72 kg): 39 L/h; CL [1, 10]: 35.8 L/h; volume of distribution [1, 10]: 112.7 L; AUC (0-Infinity)Dose [2]: 2102.55 (n = 2) (pg/mL)hr/μg; AUC (0-Last) [2]: 813.26 (pg/mL)hr; Vdw [2]: 3.47 (n = 2) L/kg; dose-adjusted AUC (0-Infinity), additional cohort versus age group II [2]: 4.6 times higher; t1/2 [2]: 8 h; clearance (clinical [3]; 0.05 ug/kg, CLw (clearance)): 6.83 mL/min/kg; AUC(0-t) (clinical [3]; AUC (0-Last)): 0.708 ng·h/mL; clearance (clinical [3]; CLw (weight adjusted clearance)): 4.83 mL/min/kg; Vd (clinical [3]; Vss): 6.25 L; half-life (clinical [3]; elimination t1/2): 4.77 h; half-life (clinical [3]; t1/2): 8.32 h; clearance (clinical [4]; CL, Population Mean): 308 mL/min; clearance (clinical [4]; CL, model value): 142 mL/min; clearance (clinical [4]; Weight-Adjusted CL, Geo. Mean of individual Bayesian estimates): 16.5 mL/min/kg; clearance (clinical [4]; Weight-Adjusted CL, Geometric Mean): 16.5 mL/min/kg; half-life (clinical [4]; terminal elimination (β) half-life): 1.6 h; t1/2, Mean [5]: 2.260 h; Vd (clinical [6]; in vivo): 43 L; AUC(0-t) (clinical [6]; in vivo, AUC0-t): 117 ng·h/mL; AUC(0-inf) (clinical [6]; in vivo, AUC0-∞): 117 ng·h/mL; Cmax (clinical [6]; in vivo, Cmax): 28.8 ng/mL; clearance (clinical [6]; in vivo, weight-adjusted clearance): ~16.7 mL/min/kg; clearance (clinical [6]; plasma, intravenous, 0.2 ug/kg, CL, Group I (≥2 to <6 y), Dose Level 1 (LD 0.25/CD 0.2 μg/kg/hr), geometric mean, full evaluable population): 271 mL/min; clearance (clinical [6]; plasma, intravenous, 0.2 ug/kg, CL, Group II (≥6 to <17 y), Dose Level 1 (LD 0.25/CD 0.2 μg/kg/hr), geometric mean, full evaluable population): 412 mL/min; Vd (clinical [6]; plasma, intravenous, 0.2 ug/kg, Vd, Group I (≥2 to <6 y), Dose Level 1 (LD 0.25/CD 0.2 μg/kg/hr), geometric mean, full evaluable population): 36.9 L; Vd (clinical [6]; plasma, intravenous, 0.2 ug/kg, Vd, Group II (≥6 to <17 y), Dose Level 1 (LD 0.25/CD 0.2 μg/kg/hr), geometric mean, full evaluable population): 51.7 L; clearance (clinical [6]; plasma, intravenous, 0.4 ug/kg, CL, Group I (≥2 to <6 y), Dose Level 2 (LD 0.50/CD 0.4 μg/kg/hr), geometric mean, full evaluable population): 212 mL/min; clearance (clinical [6]; plasma, intravenous, 0.4 ug/kg, CL, Group II (≥6 to <17 y), Dose Level 2 (LD 0.50/CD 0.4 μg/kg/hr), geometric mean, full evaluable population): 413 mL/min; Vd (clinical [6]; plasma, intravenous, 0.4 ug/kg, Vd, Group I (≥2 to <6 y), Dose Level 2 (LD 0.50/CD 0.4 μg/kg/hr), geometric mean, full evaluable population): 31.8 L; Vd (clinical [6]; plasma, intravenous, 0.4 ug/kg, Vd, Group II (≥6 to <17 y), Dose Level 2 (LD 0.50/CD 0.4 μg/kg/hr), geometric mean, full evaluable population): 61.2 L; clearance (clinical [6]; plasma, intravenous, 0.7 ug/kg, CL, Group I (≥2 to <6 y), Dose Level 3 (LD 1.00/CD 0.7 μg/kg/hr), geometric mean, full evaluable population): 276 mL/min; clearance (clinical [6]; plasma, intravenous, 0.7 ug/kg, CL, Group II (≥6 to <17 y), Dose Level 3 (LD 1.00/CD 0.7 μg/kg/hr), geometric mean, full evaluable population): 274 mL/min; Vd (clinical [6]; plasma, intravenous, 0.7 ug/kg, Vd, Group I (≥2 to <6 y), Dose Level 3 (LD 1.00/CD 0.7 μg/kg/hr), geometric mean, full evaluable population): 46.6 L; Vd (clinical [6]; plasma, intravenous, 0.7 ug/kg, Vd, Group II (≥6 to <17 y), Dose Level 3 (LD 1.00/CD 0.7 μg/kg/hr), geometric mean, full evaluable population): 46.6 L; clearance (clinical [6]; plasma, intravenous, 2 ug/kg, CL, Group I (≥2 to <6 y), Dose Level 4 (LD 1.00/CD 2.00 μg/kg/hr), geometric mean, full evaluable population): 199 mL/min; clearance (clinical [6]; plasma, intravenous, 2 ug/kg, CL, Group II (≥6 to <17 y), Dose Level 4 (LD 1.00/CD 2.00 μg/kg/hr), geometric mean, full evaluable population): 423 mL/min; Vd (clinical [6]; plasma, intravenous, 2 ug/kg, Vd, Group I (≥2 to <6 y), Dose Level 4 (LD 1.00/CD 2.00 μg/kg/hr), geometric mean, full evaluable population): 36.3 L; Vd (clinical [6]; plasma, intravenous, 2 ug/kg, Vd, Group II (≥6 to <17 y), Dose Level 4 (LD 1.00/CD 2.00 μg/kg/hr), geometric mean, full evaluable population): 72.8 L; AUC(0-t) (clinical [6]; plasma, intravenous, AUC0-t Mean, Dose Level 1, LD 0.25/CD 0.2 μg/kg/hr, full evaluable population): 2.68 ng·h/mL; AUC(0-t) (clinical [6]; plasma, intravenous, AUC0-t Mean, Dose Level 2, LD 0.50/CD 0.4 μg/kg/hr, full evaluable population): 6.46 ng·h/mL; AUC(0-t) (clinical [6]; plasma, intravenous, AUC0-t Mean, Dose Level 3, LD 1.00/CD 0.7 μg/kg/hr, full evaluable population): 17 ng·h/mL; AUC(0-t) (clinical [6]; plasma, intravenous, AUC0-t Mean, Dose Level 4, LD 1.00/CD 2.00 μg/kg/hr, full evaluable population): 28.5 ng·h/mL; AUC(0-t) (clinical [6]; plasma, intravenous, AUC0-t Median, Dose Level 1, LD 0.25/CD 0.2 μg/kg/hr, full evaluable population): 1.54 ng·h/mL; AUC(0-t) (clinical [6]; plasma, intravenous, AUC0-t Median, Dose Level 2, LD 0.50/CD 0.4 μg/kg/hr, full evaluable population): 5.25 ng·h/mL; AUC(0-t) (clinical [6]; plasma, intravenous, AUC0-t Median, Dose Level 3, LD 1.00/CD 0.7 μg/kg/hr, full evaluable population): 5.61 ng·h/mL; AUC(0-t) (clinical [6]; plasma, intravenous, AUC0-t Median, Dose Level 4, LD 1.00/CD 2.00 μg/kg/hr, full evaluable population): 25.4 ng·h/mL; AUC(0-t) (clinical [6]; plasma, intravenous, AUC0-t, Table 30 key summary (mean), Dose Level 1, LD 0.25/CD 0.2 μg/kg/hr, full evaluable population): 2.68 ng·h/mL; AUC(0-t) (clinical [6]; plasma, intravenous, AUC0-t, Table 30 key summary (mean), Dose Level 2, LD 0.50/CD 0.4 μg/kg/hr, full evaluable population): 6.46 ng·h/mL; AUC(0-t) (clinical [6]; plasma, intravenous, AUC0-t, Table 30 key summary (mean), Dose Level 3, LD 1.00/CD 0.7 μg/kg/hr, full evaluable population): 17 ng·h/mL; AUC(0-t) (clinical [6]; plasma, intravenous, AUC0-t, Table 30 key summary (mean), Dose Level 4, LD 1.00/CD 2.00 μg/kg/hr, full evaluable population): 28.5 ng·h/mL; AUC(0-inf) (clinical [6]; plasma, intravenous, AUC0-∞ Mean, Dose Level 1, LD 0.25/CD 0.2 μg/kg/hr, full evaluable population): 3.15 ng·h/mL; AUC(0-inf) (clinical [6]; plasma, intravenous, AUC0-∞ Mean, Dose Level 2, LD 0.50/CD 0.4 μg/kg/hr, full evaluable population): 6.67 ng·h/mL; AUC(0-inf) (clinical [6]; plasma, intravenous, AUC0-∞ Mean, Dose Level 3, LD 1.00/CD 0.7 μg/kg/hr, full evaluable population): 17.3 ng·h/mL; AUC(0-inf) (clinical [6]; plasma, intravenous, AUC0-∞ Mean, Dose Level 4, LD 1.00/CD 2.00 μg/kg/hr, full evaluable population): 29 ng·h/mL; AUC(0-inf) (clinical [6]; plasma, intravenous, AUC0-∞ Median, Dose Level 1, LD 0.25/CD 0.2 μg/kg/hr, full evaluable population): 1.58 ng·h/mL; AUC(0-inf) (clinical [6]; plasma, intravenous, AUC0-∞ Median, Dose Level 2, LD 0.50/CD 0.4 μg/kg/hr, full evaluable population): 5.52 ng·h/mL; AUC(0-inf) (clinical [6]; plasma, intravenous, AUC0-∞ Median, Dose Level 3, LD 1.00/CD 0.7 μg/kg/hr, full evaluable population): 6.08 ng·h/mL; AUC(0-inf) (clinical [6]; plasma, intravenous, AUC0-∞ Median, Dose Level 4, LD 1.00/CD 2.00 μg/kg/hr, full evaluable population): 25.7 ng·h/mL; AUC(0-inf) (clinical [6]; plasma, intravenous, AUC0-∞, Table 30 key summary (mean), Dose Level 1, LD 0.25/CD 0.2 μg/kg/hr, full evaluable population): 3.15 ng·h/mL; AUC(0-inf) (clinical [6]; plasma, intravenous, AUC0-∞, Table 30 key summary (mean), Dose Level 2, LD 0.50/CD 0.4 μg/kg/hr, full evaluable population): 6.67 ng·h/mL; AUC(0-inf) (clinical [6]; plasma, intravenous, AUC0-∞, Table 30 key summary (mean), Dose Level 3, LD 1.00/CD 0.7 μg/kg/hr, full evaluable population): 17.3 ng·h/mL; AUC(0-inf) (clinical [6]; plasma, intravenous, AUC0-∞, Table 30 key summary (mean), Dose Level 4, LD 1.00/CD 2.00 μg/kg/hr, full evaluable population): 29 ng·h/mL; clearance (clinical [6]; plasma, intravenous, CL Mean, Dose Level 1, LD 0.25/CD 0.2 μg/kg/hr, full evaluable population): 537 mL/min; clearance (clinical [6]; plasma, intravenous, CL Mean, Dose Level 2, LD 0.50/CD 0.4 μg/kg/hr, full evaluable population): 338 mL/min; clearance (clinical [6]; plasma, intravenous, CL Mean, Dose Level 3, LD 1.00/CD 0.7 μg/kg/hr, full evaluable population): 309 mL/min; clearance (clinical [6]; plasma, intravenous, CL Mean, Dose Level 4, LD 1.00/CD 2.00 μg/kg/hr, full evaluable population): 370 mL/min; clearance (clinical [6]; plasma, intravenous, CL Median, Dose Level 1, LD 0.25/CD 0.2 μg/kg/hr, full evaluable population): 326 mL/min; clearance (clinical [6]; plasma, intravenous, CL Median, Dose Level 2, LD 0.50/CD 0.4 μg/kg/hr, full evaluable population): 267 mL/min
